The results in this text go back to patent US9725414B2, “Fungicidal N-bicycloalkyl and N-tricycloalkyl pyrazole-4-(thio)carboxamide derivatives” (priority 2011, dated 2017).

Molecules are shown by their SMILES.

The subject of assay [1] is Venturia inaequalis. Kind of assay: Example G: in vivo preventive test on Venturia inaequalis (apple scab). The note with it: 100 ppm of active ingredient, evaluated 10 days after inoculation. As for the experimental part:
In Vivo Preventive Test on Venturia inaequalis (Apple Scab) Solvent: 24.5 parts by weight of acetone • 24.5 parts by weight of N,N-dimethylacetamide Emulsifier: 1 part by weight of alkylaryl polyglycol ether To produce a suitable preparation of active compound, 1 part by weight of active compound is mixed with the stated amounts of solvent and emulsifier, and the concentrate is diluted with water to the desired concentration. To test for preventive activity, young plants are sprayed with the preparation of active compound at the stated rate of application. After the spray coating has dried on, the plants are inoculated with an aqueous conidia suspension of the causal agent of apple scab (Venturia inaequalis) and then remain for 1 day in an incubation cabinet at approximately 20° C. and a relative atmospheric humidity of 100%. The plants are then placed in a greenhouse at approximately 21° C. and a relative atmospheric humidity of approximately 90%.

For assay [2], the system named is Pyrenophora teres. Kind of assay: Example E: in vivo preventive test on Pyrenophora teres (barley), DMF/emulsifier preparation. The note with it: 500 ppm of active ingredient, evaluated 7-9 days after inoculation. The gist of the method: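 Young barley plants sprayed preventively with compound formulated in DMF/alkylaryl polyglycol ether emulsifier and diluted in water. One day later inoculated with aqueous Pyrenophora teres spore suspension, then held 48 h at 22 °C and 100% relative humidity.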

Assay [3] has as its system Botrytis cinerea. Kind of assay: Example O: in vivo protective test on Botrytis cinerea (beans). To be noted: 100 ppm of active ingredient, lesion size 2 days after inoculation. As for the experimental part: In Vivo Protective Test on Botrytis cinerea (Beans)
Solvent: 24.5 parts by weight of acetone • 24.5 parts by weight of N,N-dimethylacetamide
Emulsifier: 1 part by weight of alkylaryl polyglycol ether
To produce a suitable preparation of active compound, 1 part by weight of active compound is mixed with the stated amounts of solvent and emulsifier, and the concentrate is diluted with water to the desired concentration.
To test for preventive activity, young plants are sprayed with the preparation of active compound. After the spray coating has dried on, 2 small pieces of agar covered with growth of Botrytis cinerea are placed on each leaf. The inoculated plants are placed in a darkened chamber at 20° C. and a relative atmospheric humidity of 100%.
2 days after the inoculation, the size of the lesions on the leaves is evaluated. 0% means an efficacy which corresponds to that of the untreated control, while an efficacy of 100% means that no disease is observed.

The subject of assay [4] is Alternaria solani. The experiment in a line: Example C: in vivo preventive test on Alternaria solani (tomato). To be noted: 500 ppm of active ingredient, evaluated 7 days after inoculation. Put shortly: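 Young tomato plants sprayed preventively with compound formulated in DMF/emulsifier and diluted with water, then inoculated one day later with Alternaria solani spores. Plants were held one day at about 22° C, 100% humidity, then at about 20° C, 96% humidity.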

Assay [5] has as its system Pyrenophora teres. The experiment in a line: Example F: in vivo preventive test on Pyrenophora teres (barley), acetone/tween/DMSO preparation. To be noted: 500 ppm of active ingredient, barley, grading 14 days after contamination. Put shortly:
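Barley ("Plaisant") grown at 22° C was sprayed at the 1-leaf stage (10 cm) with active ingredient in acetone/tween/DMSO/water, with solvent-only controls. After 24 h, leaves were inoculated with Pyrenophora teres spores (12 000 spores per mL) from 12-day cultures. % efficacy versus controls graded 14 days post-contamination.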

Assay [6] has as its system Botrytis cinerea. Kind of assay: Example P: in vivo preventive test on Botrytis cinerea (grey mould), gherkin plants. To be noted: 500 ppm of active ingredient, grading 4 to 5 days after contamination. The gist of the method: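 Gherkin plants at Z11 cotyledon stage sprayed preventively with active ingredient, then inoculated 24 h later with B. cinerea spores (50 000/mL) in PDB/fructose nutrient solution. Incubation at 17 °C and 90% RH; % efficacy graded 4–5 days post-inoculation against solvent-treated controls.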

Assay [7] concerns Uromyces appendiculatus. Kind of assay: Example Q: in vivo preventive test on Uromyces appendiculatus (bean rust). The note with it: Uromyces appendiculatus on bean plants, 500 ppm of active ingredient, grading 11 days after contamination. Put shortly:
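Saxa bean plants at 2-leaf stage, grown at 24° C., sprayed preventively with compound; 24 h later inoculated with U. appendiculatus spores (150 000 spores per mL). Percent efficacy graded 11 days after inoculation versus solvent-treated controls.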

Assay [8] relates to Septoria tritici. The experiment in a line: Example I: in vivo preventive test on Septoria tritici (wheat), acetone/tween/DMSO preparation. To be noted: 500 ppm of active ingredient, grading 24 days after contamination. Put shortly: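 Scipion wheat grown at 22° C, sprayed at 1-leaf stage (10 cm); controls received acetone/tween/DMSO/water without active. Inoculated 24 h later with S. tritici spores (500 000/mL), held 72 h at 18° C, 100% RH, then 21 days at 90% RH. % efficacy vs controls scored 24 days post-inoculation.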

`Cn1nc(C(F)F)c(C(=O)N(CC2CC3CCC2C3)C2CC2)c1F` (stereo not drawn) [Example 71]: the Efficacy in assay [1] turned out to be 100%; in assay [2], 100%; in assay [3] it was 97%; in assay [4] it was 100%.

Take `Cn1nc(C(F)F)c(C(=O)N(C2CC2)C2CC3CCCCC3C2)c1F` (stereo not drawn) [Example 12]: the Efficacy in assay [5] came out at 100%; in assay [6] it was 100%; in assay [7], 97%; in assay [8], 100%.

With `Cn1nc(C(F)F)c(C(=O)N(CC2(Cc3ccccc3)CC3CCC2C3)C2CC2)c1F` (stereo not drawn) [Example 69], the Efficacy came out at 97% in assay [5], 96% in assay [7] and 97% in assay [8].

Take `Cn1nc(C(F)F)c(C(=O)N(C2CC2)C2CCCC3CCCC32)c1F` (stereo not drawn) [Example 19]: the Efficacy was determined as 100% in assay [5]; 100% in assay [6]; 100% in assay [7]; 100% in assay [1]; 96% in assay [8].

For the compound `Cn1nc(C(F)F)c(C(=O)N(CC2CCC3CCCC3C2)C2CC2)c1F` (stereo not drawn) [Example 62], the Efficacy amounted to 97% in assay [5], 100% in assay [7] and 100% in assay [8].

As for `Cn1cc(C(=O)N(C2CC2)C2CCCC3CCCC32)c(C(F)F)n1` (stereo not drawn) [Example 20], the Efficacy in assay [5] is 97%; in assay [6] it was 100%; in assay [7], 100%; in assay [8] it was 96%.

`CC(C1CC2CCC1C2)N(C(=O)c1c(C(F)F)nn(C)c1F)C1CC1` (stereo not drawn) [Example 93]: the Efficacy worked out at 100% in assay [1], 100% in assay [2], 100% in assay [3] and 95% in assay [4].
